Test results from US8546419B2, “Dual phase drug release system” (priority 2003, dated 2013).
Read-outs that look alike come from different tables or passages of the source.

What was measured:
[1] = Experimental: The resultant suspension was diluted to 150 ml and extracted with methylene chloride (3×150 ml). Methylene chloride layers were combined, washed with 0.01 N HCl, and dried over magnesium sulfate. Solvent was removed in vacuum.
[2] = Hydrolytic stability and CPT release in aqueous media / phosphate buffered saline (RP HPLC); type: physicochemical
Experimental: The second stage hydrolysis of CPT-SI was investigated analogously.
Using procedures analogous to the described above, CPT release from these conjugates was investigated in phosphate buffered saline as described above. The conjugates were also tested for cytotoxicity in HT29 cell culture.

HT29 cell culture = test: Cytotoxicity of CPT derivatives, MTT assay; type: cell-based, human; conditions: HT-29 cell culture, 72 hours post treatment, read-out: ID50, growth inhibition
Experimental: Human colorectal adenocarcinoma HT-29 cell culture was from ATCC (ATCC HTB-38).
Cytotoxicity of CPT derivatives was investigated in HT29 cell culture. Cells were grown in McCoy's 5a medium with 1.5 mM L-glutamine supplemented with 10% FBS.

in vivo = conditions: mouse
Experimental: The toxicity of CPT was evaluated in normal outbred mice, as well as in xenograft bearing nude athymic animals in the course of antineoplastic activity studies.

HT-29 xenograft = type: in vivo; conditions: HT29 model; for time of tumor growth from 0.10-0.15 cm^3 to 1.5 cm^3: 22.5 mg/kg, untreated control 24 days
Experimental: Camptothecin and CPT-SI (the first phase release product) were used as controls.
Cells were injected subcutaneously into the left flank, 10^6 cells per animal in 50 μl. […] Animals of the first three groups received the respective experimental substance via the tail vein in five doses every three days (5xq3D). […] CPT and CPT-SI were administered as dispersions in Tween 80/water (9/1 v/v). Animal weight, tumor size, animal appearance, behavior, and survival rate were monitored for four weeks after administration. Weight loss over 20% and tumor growth over 1500 mm^3 were counted as lethalities (animals were euthanized).
The latter were administered as Cremofor® emulsions.

[3] = system: HT-29 human colorectal carcinoma cells; test: Cell growth inhibition in vitro by Taxol preparations; type: cell-based; conditions: HT-29 cells, conjugate with Taxol content of 13%, read-out: ED50, cell growth inhibitory efficacy
Experimental: PHF-SAG-Taxol conjugate synthesis was carried out on a 2-gram scale, at ambient temperature, pH 5.5-6.0. […] The PHF-SAG-Taxol was purified of low molecular weight impurities by gel filtration on G25 Sefadex column equilibrated with DI water, and recovered by lyophilyzation. […] Stability of PHF-Taxol conjugates in aqueous media was monitored by HPLC.

With “1,1-Dimethylsuccinic Acid-Linked PHF-CPT [PHF-DMSA-CPT]” the “solubility (in words)” value [1] was “soluble in water, saline and polar organic solvents” and the CPT half-release time ([2]; PBS at pH 7.47/37° C., first phase release) was 0.6 h.

For `CC[C@@]1(O)C(=O)OCc2c1cc1n(c2=O)Cc2cc3ccccc3nc2-1` [CPT, camptothecin, reference compound], the IC50 (HT29 cell culture; Homo sapiens) was 17 nM, the MTD (in vivo) was 9 to 10 mg/kg and the “time of tumor growth from 0.10-0.15 cm^3 to 1.5 cm^3” value (HT-29 xenograft) was 40 days.

`CCc1c2c(nc3ccc(OC(=O)N4CCC(N5CCCCC5)CC4)cc13)-c1cc3c(c(=O)n1C2)COC(=O)[C@]3(O)CC` [Irinotecan] showed an MTD (in vivo) of 9 to 10 mg/kg.

Compound `CC(=O)O[C@H]1C(=O)[C@@]2(C)[C@H]([C@H](OC(=O)c3ccccc3)[C@]3(O)C[C@H](OC(=O)[C@H](O)[C@@H](NC(=O)c4ccccc4)c4ccccc4)C(C)=C1C3(C)C)[C@]1(OC(C)=O)CO[C@@H]1C[C@@H]2O` [Taxol] has an EC50 [3] of 15 nM.

In the case of “Camptothecin-20-(N-succinimidoglycinate) [CPT-SI]”, the solubility in water [1] is reported as < 1.0 µg/mL, the “half-time of subsequent (second stage) hydrolysis” value ([2]; depending on the conditions) is reported as “over 20 hrs” and the IC50 (HT29 cell culture) is reported as 34 nM. The “effect on tumor dynamics” value (HT-29 xenograft) was “no significant effect on tumor dynamics” and the “time of tumor growth from 0.10-0.15 cm^3 to 1.5 cm^3” value (HT-29 xenograft) was 27 days.
